Test results taken from US12692513B2, “Prostate neoantigens and their uses” (Janssen Biotech, Inc., priority 2020, dated 2026).

What was measured:
[1] = test system: CD8+ T cells in PBMCs from patients with metastatic castrate-resistant prostate cancer; assay: Patient PBMC restimulation assay (TNFα+IFNγ+ CD8+ T cells); assay type: cell-based, human; details: 9mer peptide; for Maximum frequency of TNFα+IFNγ+CD8+ T cells (Percent): greatest frequency among all tested PBMC donors; for Maximum fold change over negative control: TNFα+IFNγ+CD8+ T cells, highest across PBMC donors
Experimental: PBMCs from human patients with metastatic castrate-resistant prostate cancer were thawed using media (RPMI 1640 supplemented with Glutamax, 10% HI FBS, and IX Sodium Pyruvate). Cells were counted and plated in a 96 well round bottom microplate at a concentration of 250,000 viable cells per well. Lyophilized peptides were solubilized in 100% DMSO and diluted in media to 10 μg/mL. Neoantigen peptides were added in equal volume to PBMCs for a final concentration of 5 μg/mL. CEF Peptide Pool “Plus” (Cellular Technologies, Ltd.) was utilized as a positive control and DMSO at the same final concentration as the experimental peptides was utilized as a negative control. Human IL-15 (Peprotech) was added to all wells at final concentration of 10 ng/mL.
Plates were incubated at 37° C. (5% CO2) for a total of 13 days. Media was refreshed every 2 days with IL-15 (10 ng/mL final concentration) and IL-2 (R&D systems, 10 IU/mL final concentration). On day 12, PBMCs were re-stimulated with identical experimental peptides or controls, at same concentration as peptide stimulation on Day 1. After 1-hour incubation, protein Inhibitor Cocktail (eBioscience) was added to every well and plate was incubated overnight.
On day 13, cells were stained for intracellular flow cytometry analysis. The cells were washed with PBS and stained with Live/Dead Fixable Aqua Dead Cell stain (ThermoFisher). Following the live/dead stain, cells were blocked using Biotin-Free Fc Receptor Blocker (Accurate Chemical & Scientific Corp). Extracellular cellular flow panel (1 μL/antibody per well in 50 μL) consisted of CD3 PerCP-Cy5.5 (Biolegend), CD4 BV421 (Biolegend), and CD8 APC-Cy7 (Biolegend). After extracellular staining, cells were fixed using Foxp3/Transcription Factor Staining Buffer Set (eBioscience) and stained for intracellular proteins (1:50 dilution) using TNFα FITC (R&D Systems) and IFNγ BV785 (Biolegend). Cells were washed and resuspended in stain buffer and analyzed using a BD Celesta flow cytometer.
Flow cytometry cell staining analysis was completed using Flow Jo v10. Cells were gated on live, singlet, CD3+ cells. The CD8+ T cells were analyzed for TNFα/IFNγ expression and the frequency of double positive TNFα/IFNγ CD8+ T cells was recorded. Responses were assessed to be positive when the frequency of double positive TNFα/IFNγ CD8+ T cells due to stimulation with an experimental peptide was increased greater than or equal to 2-fold over the DMSO only negative control for that patient. Peptides were analyzed in 1 to 7 patient samples.
The 9 mer fragments shown in Table 13 were assessed for their ability to activate T cells using the Patient PBMC restimulation assay described in Example 1 using TNFα and IFNγ production by CD8^+ T cells as a readout. Self-antigens shown in Table 15 were also used in the assays. […] PBMCs from ten patients were evaluated.

[2] = molecular target: HLA-A*01:01 (Homo sapiens, UniProt P04439, A114D/A174V/A182V/D101N/D185E/E176A/E190D/L180R/Q94H/R68K/S129P/T187R/V100A/V91M/W191G); assay: In vitro binding to class I MHC (UV peptide exchange, HLA class I ELISA); details: 100% = same binding as positive control peptide
Experimental: (§1) The 9 mer peptides identified by bioinformatics analysis were analyzed for their binding propensities to 6 common HLA class I alleles (HLA-A*01:01, A*02:01, A*03:01, A*24:02, B*07:02, B*08:01). The principle of the method is briefly described below and consists of two parts, one involving exchange of peptide with a positive control induced by Ultraviolet (UV) radiation, and the second is an enzyme immunoassay to detect stable HLA-peptide and empty HLA complexes. HLA-bound peptides are critical for the stability of the HLA complex. A conditional HLA class I complex was stabilized by an UV-labile peptide utilizing a different peptide (Pos) for each HLA (Pos: HLA-A*01:01: […](SEQ ID NO: 409), HLA-A*02:01: […] (SEQ ID NO: 410), HLA-A*03:01: […] (SEQ ID NO: 411), HLA-A*24:02: […] (SEQ ID NO: 412), HLA-B*07:02: […] (SEQ ID NO: 413), HLA-B*08:01: […] (SEQ ID NO: 414), which could be cleaved by UV irradiation when bound to the HLA molecule. Upon cleavage, the resulting peptide fragments dissociated from the HLA class I complex since their length was insufficient to bind stably to HLA. Under the conditions in which peptide cleavage was performed (neutral pH, on melting ice), the peptide-free HLA complex remained stable.
(§2) The exchange efficiency between the peptide of interest and Pos was analyzed using an HLA class I ELISA. The combined technologies allowed the identification of ligands for an HLA molecule of interest which are potentially immunogenic.
(§3) Exchange control peptide Pos was a high affinity binder to the relevant HLA class I allele while exchange control peptide Neg was a non-binder. The UV control represented UV-irradiation of conditional HLA class I complex in the absence of a rescue peptide.
(§4) The HLA class I ELISA is an enzyme immunoassay based on the detection of beta2-microglobulin (B2M) of (peptide-stabilized) HLA class I complexes. To this end streptavidin was bound onto polystyrene microtiter wells. After washing and blocking, HLA complex present in exchange reaction mixtures or ELISA controls was captured by the streptavidin on the microtiter plate via its biotinylated heavy chain. Non-bound material was removed by washing. Subsequently, horseradish peroxidase (HRP)-conjugated antibody to human B2M was added. The HRP-conjugated antibody binds only to an intact HLA complex present in the microtiter well because unsuccessful peptide exchange results in disintegration of the original UV-sensitive HLA complex upon UV illumination. In the latter case B2M was removed during the washing step. After removal of non-bound HRP conjugate by washing, a substrate solution was added to the wells. A colored product formed in proportion to the amount of intact HLA complex present in the samples. After the reaction was terminated by the addition of a stop solution, absorbance was measured in a microtiter plate reader. The absorbance was normalized to the absorbance of an exchange control peptide (represents 100%). Suboptimal HLA binding of peptides with a moderate to low affinity for HLA class I molecules can also be detected by this ELISA technique (Rodenko, B et al. (2006) Nature Protocols 1: 1120-32).
(§5) Peptides that had 10% or greater exchange efficiency in one of the 6 HLA alleles were considered for further immunogenicity testing and analysis.
(§6) Binding of select neoepitopes to HLA-A*01:01, HLA-A*02:01, HLA-A*03:01, HLA-A*24:02, HLA-B*07:02 and HLA-B*08:01 was evaluated using the assay described in Example 1. […] As a criterion for further evaluation, peptides with an exchange rate of at least 10% with the corresponding Pos peptide for at least one of the 6 HLA alleles that we considered for further evaluation. The exchange rates with the allele specific Pos peptides, of the 24 neoantigens so identified are summarized below in Table 17. Higher percentages correspond to stronger binding to the HLA allele.

[3] = molecular target: HLA-A*02:01 (Homo sapiens, UniProt P04439, D140Y/D185E/D98H/E176V/E277Q/G131W/G231S/I119V/I121R/I166T/I218V/L300P/L318F/N151K/N90K/P208A/P217A/Q86G/Q94H/R138H/R169H/T345S); assay: as above; details: 100% = same binding as positive control peptide
Experimental: as §1, §2, §3, §4, §5, §6

[4] = molecular target: HLA-A*03:01 (Homo sapiens, UniProt P04439); assay: as above; details: 100% = same binding as positive control peptide
Experimental: as §1, §2, §3, §4, §5, §6

[5] = molecular target: HLA-A*24:02 (Homo sapiens, UniProt P04439, D101N/D140Y/D185E/E176V/E190D/F33S/G103R/G107R/I119L/I121M/I306V/K335N/L105A/L180Q/L300P/N151K/N90K/Q86E/Q94H/R106L/R138H/R89G/T104I/T345S/V100E/W191G/Y123F); assay: as above; details: 100% = same binding as positive control peptide
Experimental: as §1, §2, §3, §4, §5, §6

[6] = molecular target: HLA-B*07:02 (Homo sapiens, UniProt P01889); assay: as above; details: 100% = same binding as positive control peptide
Experimental: as §1, §2, §3, §4, §5, §6

[7] = molecular target: HLA-B*08:01 (Homo sapiens, UniProt P01889, A93T/A95T/D138N/E176V/E187T/K202T/Q94N/R180D/S35A/V36M/Y33D/Y91F); assay: as above; details: 100% = same binding as positive control peptide
Experimental: as §1, §2, §3, §4, §5, §6

Molecule | Maximum frequency of TNFα+IFNγ+CD8+ T cells (Percent) [1] [%] | further results
P73 (DSSGNLLERNSFEVRV; listed as Homo sapiens) [Neoantigen P73] | 0.110 | –
P98: peptide used for stimulation of PBMC samples (FIG. 5D); sequence in a table not shown (DDRNTFDIVWWCPMSRLRLALTVPPSTTTTCVTVPAWAA; listed as Homo sapiens) [Neoantigen P98] | 1.000 | Maximum fold change over negative control [1]: 14.93; Exchange rate with allele specific Pos peptide, HLA-A*01:01 [2]: 2.5%; Exchange rate with allele specific Pos peptide, HLA-A*02:01 [3]: 7.9%; Exchange rate with allele specific Pos peptide, HLA-A*03:01 [4]: 51.1%; Exchange rate with allele specific Pos peptide, HLA-A*24:02 [5]: −0.1%; Exchange rate with allele specific Pos peptide, HLA-B*07:02 [6]: 6.7%; Exchange rate with allele specific Pos peptide, HLA-B*08:01 [7]: 2.4%
SLYHREKQLIAMDSAI (listed as Homo sapiens) [Neoantigen P22] | 0.120 | Maximum fold change over negative control [1]: 5.00; Exchange rate with allele specific Pos peptide, HLA-B*07:02 [6]: 8.3%
NSKMALNSLNSIDDAQLTRIAPPRSHCCFWEVNAP (listed as Homo sapiens) [Neoantigen P35] | 0.064 | –
P27 (LHPQRETFTPRWSGANYWKLAFPVGAEGTFPAAATQRGVVRPA; listed as Homo sapiens) [Neoantigen P27] | 0.430 | –
P59 (LHPDSGNMVENGCYLRR; listed as Homo sapiens) [Neoantigen P59] | 3.010 | –
YEAGMTLGEKFRVGNCKHLKMTRP (listed as Homo sapiens) [Neoantigen P82] | 0.970 | –
P56 (PKSEVRAKCKFSILNAK; listed as Homo sapiens) [Neoantigen P56] | 1.620 | –
P46 (DDRNTFDIVWWCPMSRLRLALTVPPSTTTTCVTVPAWAA; listed as Homo sapiens) [Neoantigen P46] | 0.140 | –
P97 (GYLRMQGLMAQRLLLR; listed as Homo sapiens) [Neoantigen P97] | 0.160 | –
P58 (MMAEIISVHVPKILSGK; listed as Homo sapiens) [Neoantigen P58] | 5.370 | –
P48 (VQPIARELYQFTFDLLI; listed as Homo sapiens) [Neoantigen P48] | 0.220 | –
P17 (GVPGDSTRRAVRRMNTF; listed as Homo sapiens) [Neoantigen P17] | 0.130 | –
YEAGMTLGGKILFFLFLLLPLSPFSLIF (listed as Homo sapiens) [Neoantigen P87] | 0.120 | –
P37 (MAGGVLRRLLCREPDRDGDKGASREETVVPLHIGDPVVLPGIGQCYSALF; listed as Homo sapiens) [Neoantigen P37] | 1.160 | –
GVPGDSTRRAVRRMNTF (listed as Homo sapiens) [Neoantigen P16] | 4.620 | –
P61 (MFENGCYLGRQKRFKCE; listed as Homo sapiens) [Neoantigen P61] | 0.084 | –
P60 (CYLRRQKRLKCEKQPGA; listed as Homo sapiens) [Neoantigen P60] | 0.340 | –
P50 (QMAVIQYSCMGLMVFAM; listed as Homo sapiens) [Neoantigen P50] | 0.190 | –
P76 (peptide, listed as Homo sapiens) VFFKRAAEGFFRMNKLKESSDTNPKPYCMAAPMGLTENNRNRKKSYRETNLKAVSWPLNHT | 0.170 | Maximum fold change over negative control [1]: 2.30
P77 (peptide, listed as Homo sapiens) VFFKRAAEGFFRMNKLKESSDTNPKPYCMAAPMGLTENNRNRKKSYRETNLKAVSWPLNHT | 0.160 | Maximum fold change over negative control [1]: 3.24
P19 (peptide, listed as Homo sapiens) WTPIPVLTRWPLPHPPPWRRATSCRMARSSPSATSGSSVRRRCSSLPSWVWNLAASTRPRSTPS | 0.480 | –
